What was measured:
[1] = tested on: MAP-kinase p42^mapk in NB4 cells; experiment: MAP-kinase activation (p42mapk phosphorylation) in NB4 cells; type: cell-based, human
Experimental: In order to determine whether MAP-kinase phosphorylation is specific and is altered by 1α,25(OH)2 D3, the time-dependent effects of 1α,25(OH)2 D3 on p42^mapk phosphorylation was examined using human acute promyelocytic leukemia cells (NB4). In this study, the NB4 cells, cultured in 10% charcoal-stripped fetal calf serum (FCS) medium, were treated with 1α,25(OH)2 D3 at 10^-8 M for various time periods. Cells were then extracted and the phosphorylated MAP-kinase was immunoprecipitated with anti-phosphotyrosine antibody and further analyzed by Western blot using the antibodies against p42^mapk.
The lysate was further processed for anti-phosphotyrosine immunoprecipitation. […] After transferring the proteins to the PVDF membrane, the membrane was further incubated with primary anti-p42^mapk antibodies that were (+) or were not (-) pre-exposed to MAP-kinase peptide.
This example describes assays used for measurement of MAP-kinase activity in NB4 cells.
Cell culture of NB4 cells
The cell line is characterized by a translocation involving chromosomes 15 and 17, which is typical of the classical form of APL-M3 in the French-American-British [FAB] classification. NB4 cells were cultured in DMEM/F12 medium with 10% FCS at 5% CO2 balanced air and were routinely passaged as suspension cultures and only passages 8 to 20 were used for each assay.
Immunoprecipitation of Tyrosine-Phosphorylated Proteins
NB4 cells were cultured in 60-mm diameter dishes and treated with 1,25(OH)2 D3 or analogs in 4 ml of DMEM/F12 containing 10% charcoal-stripped FCS.
Insoluble material was removed in a microcentrifuge at 14,000 rpm for 10 min. Protein concentration was determined with a protein assay kit (Bio-Rad Lab, Hercules, Calif.). For immunoprecipitation, the supernatant was incubated with bead-conjugated monoclonal anti-phosphotyrosine antibody overnight at 4° C. The immunoprecipitates containing the tyrosine-phosphorylated proteins were washed four times with freshly-prepared RIPA buffer and further eluted with 2× Laemmli gel buffer.
At this point, the samples were either stored at -20° C. for further use or processed via Western blots. Equal loading of MAP-kinase protein was determined by running the Western blots using polyclonal anti-p42^mapk antibody. For this purpose, samples were aliquoted from each cell extract before immunoprecipitation.
SDS Gel Electrophoresis and Western blot
The membrane was further immunoblotted using a rabbit anti-p42^mapk polyclonal antibody overnight at 4° C. followed by incubation with secondary horseradish peroxidase-conjugated mouse anti-rabbit antibody for 1 hr at 25° C. The phosphorylated MAP-kinase bands were then visualized by enhanced chemiluminescence (ECL). A Ultrascan LX Laser Densitometer (LKB, Bromma, Sweden) scanned the density of the immuno-phosphoprotein bands. The results were normalized by protein loading and further plotted as percent of control of the band density.

[2] = tested on: intestinal Ca2+ transport in perfused chick duodena (transcaltachia); experiment: Transcaltachia assay (rapid stimulation of 45Ca2+ transport in perfused duodena); conditions: 1α,25(OH)2 D3 = 100
Experimental: Duodenal loops from normal, vitamin D-replete chicks were lumenally perfused with ^45 Ca^2+ (5 uCi/ml of buffer). To establish basal transport rates, celiac artery of controls were perfused with control medium for the first 20 min. The duodena were then either re-exposed to control medium containing the vehicle ethanol (0.005%, final concentration) through the celiac artery, or vascularly perfused with 300 pM or 650 pM agonist analogs JM or JN or with 650 pM of a control reference compound 1α,25(OH)2 D3. The venous effluent was collected at 2 min intervals for liquid scintillation spectrophotometry of the ^45 Ca^2+. […] Values represent mean ±SEM for n=4 in each group.
The data shown in FIG. 13 are the mean ±SEM from 4-5 duodena. […] Open circles represent the negative control receiving no treatment with 1α,25(OH)2 D3 or analog. […] Data represent the ratio of treated to basal values ±SEM extracted from a time-course plot (as in panel A) at 32 minutes.
This example describes the assay used for testing rapid response transcaltachia described in J. Biol. Chem, 268: 13811-13819 (1993).
White Leghorn cockerels (Hyline International, Lakeview, Calif.) were obtained on the day of hatch and maintained on a vitamin D-supplemented diet (1.0% calcium and 1.0% phosphorus; O. H. Kruse Grain and Milling, Ontario, Calif.) for 5-6 weeks to prepare normal vitamin D3 -replete chicks for use in the transcaltachia studies.
Measurements of ^45 Ca^2+ transport were carried out in perfused chick duodena. Normal vitamin D-replete chicks weighing approximately 500 g were anesthetized with 0.3 ml per 100 g Chloropent (Fort Dodge, Iowa), and the duodenal loop was surgically exposed. The celiac vein and blood vessels branching off from the celiac artery were ligated before cannulation of the celiac artery itself, and vascular perfusion was immediately initiated. Both the celiac artery and vein of the duodena were perfused with modified Grey's balanced salt solution (GBSS) +0.9 mM Ca which was oxygenated with 95% O2 and 5% CO2. A basal transport rate was established by perfusion with control medium for 20 minutes after the intestinal lumen was filled with ^45 Ca^2+. The tissue was then exposed to 1α,25(OH)2 D3 or analogs or reexposed to control medium for an additional 40 minutes. The vascular perfusate was collected at 2 min intervals during the last 10 min of the basal and during the entire treatment period. Duplicate 100 μl aliquots were taken for determination of the ^45 Ca^2+ levels by liquid scintillation spectrometry.

[3] = tested on: chloride channels in ROS 17/2.8 cells; conditions: 1 nM HL in the bath; 1α,25(OH)2 D3 5 nM or less; listed as 1β,25(OH)2 D3
Experimental: In each case, at least a 3-min period was allowed after the addition of the analog to the bath for currents to reach a stable amplitude value. […] Anion currents were isolated from inward Ba^2+ currents after blockade of Ca^2+ channels with 100 μM Cd^2+.

HL-60 cells = experiment: Cell differentiation assay (NBT reduction); type: cell-based
Description: The cell differentiation assay is used for a determination of relative potency of the analog vis-a-vis the potency of the reference compound 1α,25(OH)2 D3 in promoting the cell differentiation or inhibiting the cell proliferation. The results of the cell differentiation assay are expressed as the effective dose-50 (ED-50) which is defined as 50% of the concentration required for a maximal response.
Cell Differentiation Assay
After 4 days of culture in a humidified atmosphere of 5% CO2 in air at 37° C., the dishes were shaken to loosen any adherent cells. All cells were then assayed for differentiation by NBT reduction assay and for proliferation by [^3 H]thymidine incorporation.
Superoxide production was assayed by nitro blue tetrazolium-reducing activity as follows.
The percentage of cells containing black formazan deposits was determined using a hemacytometer.

rapid responses (VDRmem) = experiment: Antagonist function (summary classification); conditions: Yes/No, Tables 1 and 6
Description: (§1) Table 6 identifies biological properties, such as genomic response, rapid response, agonist or antagonist function, binding of the analog to the vitamin binding protein (expressed as RCI), binding to the nuclear 1α,25(OH)2 D3 receptor (expressed as RCI) rapid response (expressed as % transcaltachia the rapid hormonal stimulation of intestinal calcium absorption) the classic vitamin D responses such as intestinal Ca^2+ absorption (ICA) and bone Ca^2+ mobilizing activity (BCM) determined in vivo in a vitamin D-deficient chick, and cell differentiation (expressed as % ED50), an assessment of the ability to promote the nuclear response of cell differentiation.

VDRnuc = experiment: Genomic response (summary classification); conditions: Yes/No, Tables 1 and 6
Description: as §1

VDRmem = experiment: Rapid response (summary classification); conditions: Yes/No, Tables 1 and 6
Description: as §1

[4] = target: T1, nuclear receptor for 1α,25(OH)2 D3 [VDRnuc] (Gallus gallus, UniProt O42392); experiment: Relative Competitive Index (steroid competition) assay, nuclear receptor VDRnuc; type: binding, chick; set-up: key to Nuclear 1α,25-D Receptor (RCI): % relative to 1α,25(OH)2D3 binding (RCI = 100%)
T1 construct: VDRnuc receptor preparation from chick intestine mucosa; from tissue; host or cells: chick intestinal mucosa
T1 sequence (O42392 1-451): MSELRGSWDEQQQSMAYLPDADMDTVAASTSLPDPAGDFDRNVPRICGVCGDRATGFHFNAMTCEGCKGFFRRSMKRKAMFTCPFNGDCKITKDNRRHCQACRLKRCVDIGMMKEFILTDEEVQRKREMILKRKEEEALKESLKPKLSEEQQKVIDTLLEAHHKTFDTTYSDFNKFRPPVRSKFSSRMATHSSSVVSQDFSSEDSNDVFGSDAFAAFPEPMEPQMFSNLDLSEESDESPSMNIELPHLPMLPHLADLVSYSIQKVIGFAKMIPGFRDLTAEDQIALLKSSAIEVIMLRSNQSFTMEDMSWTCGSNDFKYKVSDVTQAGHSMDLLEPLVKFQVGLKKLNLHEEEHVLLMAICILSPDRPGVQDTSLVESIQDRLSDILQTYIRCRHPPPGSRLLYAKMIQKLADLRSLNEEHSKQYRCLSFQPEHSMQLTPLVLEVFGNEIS
Experimental: The ability of analogs to mediate genomic responses are directly determined by the ability of the analog in question to bind to the nuclear receptor for 1α,25(OH)2 D3 [VDRnuc ]. This ability is detected by the assay measuring Relative Competitive Index (RCI).
The assay is based upon the principles of a steroid competition assay. A fixed amount of [^3 H]1α,25(OH)2 D3 is mixed with increasing amounts of competitive analogs or the natural hormone, 1α,25(OH)2 D3, and incubated with a VDRnuc receptor preparation from chick intestine mucosa.
Ligand Receptor Competition Assay
This example describes a ligand receptor competitive assay used for determination of an analog's relative ability to bind to VDRnuc expressed as relative competitive index (RCI).
The relative affinity of nonradioactive 1α,25(OH)2 D3 and each analog to compete with [^3 H]1α,25(OH)2 D3 for binding to the VDRnuc of NB4 cells was carried out in vitro. The NB4 cells were collected from a fast growing stage and the cellular VDRnuc of 1α,25(OH)2 D3 were extracted from KTED buffer containing 10 mM Tris-HCl, pH 7.4, 300 mM KCl, 1 mM EDTA and 5 mM DTT. After sonication, the cell extract was further centrifuged at 500× g for 10 min. The supernatant was collected for use in a ligand-receptor binding assay.
In this assay, increasing concentrations (10^-10 to 10^-6 M) of nonradioactive 1α,25(OH)2 D3 or the tested analogs were incubated with NB4 cell extracts in the presence of a fixed saturating amount of 1 pmole of [^3 H]1α,25(OH)2 D3. The reciprocal of the percentage of maximal binding of [^3 H]1α,25(OH)2 D3 was then calculated and plotted as a function of the relative analog concentration versus [^3 H]1α,25(OH)2 D3. […] The competitive index value for each analog is then normalized to the competitive index value of the […], thereby generating the value of Relative Competitive Index (RCI) where the RCI for 1α,25(OH)2 D3 is defined as 100%.
The full description of the assay is found in Methods in Enzymology: Vitamins and Co-Enzymes, Vol. 67, 494-500 , Academic Press, NY(1980); Biochem. Biophys. Res. Commun., 91: 827-834 (1979); and Endocrinology, 139(2): 457-465 (1998).

CC1=C(/C=C\C2=CCC[C@]3(C)[C@@H]([C@H](C)CCCC(C)(C)O)CC[C@@H]23)C[C@@H](O)C[C@@H]1O [HF] was tested, and the “activation of MAP-kinase versus 1α,25(OH)2 D3” value ([1]; 1 minute) was “more than 1α,25(OH)2 D3” and the “activation of MAP-kinase versus 1α,25(OH)2 D3” value ([1]; 5 minute) was “only slightly less active”.

CC1=C(/C=C/C2=CCC[C@]3(C)[C@@H]([C@H](C)CCCC(C)(C)O)CC[C@@H]23)C[C@@H](O)C[C@@H]1O [JB] was tested, and the “Rapid Trans-Caltachia, relative to 1α,25(OH)2 D3” value [2] was “smaller than 5%”.

In the case of C=C1/C(=C\C=C2/CCC[C@]3(C)[C@@H]([C@H](C)CCCC(C)(C)O)CC[C@@H]23)C[C@@H](O)C[C@H]1O [Analog HL, 1β,25-dihydroxyvitamin D3], the “antagonism of 1α,25(OH)2 D3-stimulated chloride channel opening” value [3] is reported as “significantly reduced”.

In the case of C=C1/C(=C\C=C2/CCC[C@]3(CO)[C@@H]([C@H](C)CCCC(C)(C)O)CC[C@@H]23)C[C@@H](O)C[C@@H]1O [HS], the “potency at promoting cell differentiation versus 1α,25(OH)2 D3” value (HL-60 cells) is reported as “about twenty times more potent”, the Antagonist (rapid responses (VDRmem)) is reported as “No” and the “Genomic Response” value (VDRnuc) is reported as “Yes”. The “Rapid Response” value (VDRmem) was “Yes”, the “Binding to VDRnuc relative to 1α,25(OH)2 D3 (RCI)” value ([4]; 1α,25(OH)2 D3 = 100%, FIG. 8: chick intestine mucosa) was 25% and the “Nuclear 1α,25-D Receptor (RCI)” value ([4]; RCI of 1α,25(OH)2 D3 = 100) was 25.
